T1: human CEACAM5 (Homo sapiens, UniProt P06731)
T1 construct: soluble recombinant CEACAM5 as capture antigen
T1 sequence (P06731 35-685 limits assumed): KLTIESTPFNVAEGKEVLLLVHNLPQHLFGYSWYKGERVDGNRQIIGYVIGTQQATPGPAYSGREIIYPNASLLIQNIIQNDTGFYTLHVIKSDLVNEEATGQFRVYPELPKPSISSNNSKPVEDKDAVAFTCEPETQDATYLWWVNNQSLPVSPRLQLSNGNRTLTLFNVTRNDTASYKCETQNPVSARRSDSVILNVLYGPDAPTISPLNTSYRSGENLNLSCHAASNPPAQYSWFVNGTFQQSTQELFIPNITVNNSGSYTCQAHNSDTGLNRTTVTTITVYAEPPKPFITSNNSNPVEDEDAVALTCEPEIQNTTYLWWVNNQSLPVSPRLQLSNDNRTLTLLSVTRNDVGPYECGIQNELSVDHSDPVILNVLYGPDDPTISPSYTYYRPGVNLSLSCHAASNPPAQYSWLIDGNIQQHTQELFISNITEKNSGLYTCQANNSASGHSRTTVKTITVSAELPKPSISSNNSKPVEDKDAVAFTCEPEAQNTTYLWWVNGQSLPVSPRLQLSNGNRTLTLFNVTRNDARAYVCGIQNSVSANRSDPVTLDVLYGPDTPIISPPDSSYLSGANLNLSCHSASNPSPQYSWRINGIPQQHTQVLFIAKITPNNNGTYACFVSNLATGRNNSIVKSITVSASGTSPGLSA


How the values were obtained:
[1] = test system: Macaca fascicularis CEACAM5; settings: cited from earlier work
Sequence of Macaca fascicularis CEACAM5 (as listed by the source): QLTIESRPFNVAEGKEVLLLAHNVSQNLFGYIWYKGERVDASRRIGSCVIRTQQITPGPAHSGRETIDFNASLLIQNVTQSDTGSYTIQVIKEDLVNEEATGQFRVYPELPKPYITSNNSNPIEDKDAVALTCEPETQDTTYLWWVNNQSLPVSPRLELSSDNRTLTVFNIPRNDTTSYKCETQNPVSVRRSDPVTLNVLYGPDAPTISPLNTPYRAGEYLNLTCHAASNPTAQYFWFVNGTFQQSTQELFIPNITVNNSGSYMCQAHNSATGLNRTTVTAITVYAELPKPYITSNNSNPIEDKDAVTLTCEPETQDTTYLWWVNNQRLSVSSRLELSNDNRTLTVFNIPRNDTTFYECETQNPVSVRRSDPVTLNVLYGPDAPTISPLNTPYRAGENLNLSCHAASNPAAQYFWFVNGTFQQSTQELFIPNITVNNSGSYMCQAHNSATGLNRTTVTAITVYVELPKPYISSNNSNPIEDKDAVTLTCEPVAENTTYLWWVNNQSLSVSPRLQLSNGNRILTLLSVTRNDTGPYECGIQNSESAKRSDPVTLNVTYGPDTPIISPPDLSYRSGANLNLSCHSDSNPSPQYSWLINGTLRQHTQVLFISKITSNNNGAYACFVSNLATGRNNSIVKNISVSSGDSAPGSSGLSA

[2] = test system: other CEACAM family members; settings: cited from earlier work
human CEACAM5 = molecular target: T1, human CEACAM5; test: Affinity for human CEACAM5; type: binding
Source text: (§1) In an attempt to produce new antibodies against CEACAM5 surface protein with optimal characteristics for therapeutic purposes, mice were immunized with recombinant proteins and with tumour cells. They have screened hundreds of hybridoma using ELISA on several recombinant proteins of the CEACAM family, and flow cytometry with relevant cell lines, in order to select only immunoglobulins (IgGs) with the advantageous profile. Unexpectedly, they were able to select hybridoma clones and produce corresponding mature IgGs that comprise all of the desired features. […] In a cellular context, these antibodies display high affinity for tumor cells (in the nano-molar range). […] It can be experimentally assessed by a variety of known methods, such as measuring association and dissociation rates with surface plasmon resonance or measuring the EC50 (or apparent KD) in an immunochemical assay (ELISA, FACS). In these assays, the EC50 is the concentration of the antibody which induces a response halfway between the baseline and maximum after some specified exposure time on a defined concentration of antigen by ELISA (enzyme-linked immuno-sorbent assay) or cell expressing the antigen by FACS (Fluorescence Activated Cell Sorting). Affinity for human CEACAM5 or for Macaca fascicularis CEACAM5 may be determined as the EC50 value in an ELISA using soluble recombinant CEACAM5 as capture antigen.

[3] = test system: Macaca fascicularis CEACAM5; test: Affinity for Macaca fascicularis CEACAM5; type: binding
Source text: as §1

| Molecule | cross-reaction with CEACAM5 from Macaca fascicularis [1] | binding to related antigens / other CEACAM family members [2] | affinity for human CEACAM5 compared with MAb2 (human CEACAM5) | affinity for Macaca fascicularis CEACAM5 compared with MAb2 [3] |
| --- | --- | --- | --- | --- |
| labetuzumab: Immunomedics anti-human CEACAM5 antibody used in clinical trials | not cross-reacting | not to bind | – | – |
| Mab2K52R: variant of antibody MAb2 generated by introducing a K52R substitution in the CDR2-L (antibody, V domains shown) VH: EVQLQESGGVLVKPGGSLKLSCAASGFVFSSYDMSWVRQTPEKRLEWVAYISSGGGITYFPDTVQGRFTVSRDNAKNTLYLQMNSLKSEDTAIYYCAAHYFGSSGPFAYWGQGTLVTVSA VL: DIQMTQSPASLSASVGETVTITCRASENIFSYLAWYQQKQGKSPQLLVYNTRTLAEGVPSRFSGSGSGTQFSLKINSLQPEDFGSYYCQHHYGTPFTFGSGTKLEIK | – | – | essentially the same affinity | essentially the same affinity |

— patent US20220080053A1, “USE OF ANTI-CEACAM5 IMMUNOCONJUGATES FOR TREATING LUNG CANCER” (SANOFI, priority 2019, published 2022)
